Values of other authors, collected in publication PMC12671102 (Drug Design, Development and Therapy, 2025).

Legend:
subjects [1] = system: subjects
subjects [2] = settings: Phase II study
[3] = moderate fat meal

Structure (SMILES)	subjects with TEAEs (subjects [1]) [%]	nephrolithiasis (subjects [2])	subjects with increases in serum creatinine (subjects [2]) [%]	effect of food on absorption [3]
O=C(c1cc(Br)c(O)c(Br)c1)N1CCOc2ccncc21 [URC102]	41	–	–	–
CC(C)(Sc1ccncc1-c1ccc(C#N)c2ccccc12)C(=O)O [verinurad]	–	no nephrolithiasis	17.1	delayed absorption
